Measurements reported in article PMC9598282 (Antibiotics, 2022).
≈ marks a conversion by molar mass, not a printed value. Where “and” joins values, the source holds several entries; their conditions need not be identical. Equal entries are not always repeated. Bridge positions count the residues as written; N and C are the ends. Square brackets hold non-standard residues; d marks the D form. Peptide text beside a SMILES is read from it. * marks the point of attachment. X1 = CC[C@H](C)CCCCC(=O)*; Dab = NCC[C@H](N)C(=O)O

How the values were obtained:
[1] = test system: P. aeruginosa 101243; assay type: cell-based, Pseudomonas aeruginosa; conditions: colistin-resistant isolate
Procedure: (§1) For the preparation of the bacterial solution, overnight grown culture was diluted in 0.85% saline solution, adjusted to 0.5 McFarland turbidity and further diluted in Mueller–Hinton broth for inoculation to a final concentration of 5 × 10^5 colony forming units/mL (CFU/mL). The agents were serially diluted two-fold in a 96-well plate, and equal volumes of bacterial solution were subsequently added to the designated wells. The well consisting of bacterial solution served as the positive control, while the well containing only media served as the negative control. The plate was then incubated at 37 °C for 18 h. After incubation, an Emax Plus microplate reader (Molecular Devices, Union City, CA, USA) was used to measure the optical density (OD) at a wavelength of 590 nm to confirm the turbidity. The antibacterial activity corresponded to the MIC, which is defined as the lowest concentration of the agent necessary to inhibit visible bacterial growth.

[2] = test system: P. aeruginosa 114228; assay type: cell-based, Pseudomonas aeruginosa; conditions: colistin-resistant isolate
Procedure: as §1

[3] = test system: P. aeruginosa P259-96918; assay type: cell-based, Pseudomonas aeruginosa; conditions: colistin-susceptible MDR isolate
Procedure: as §1

[4] = test system: P. aeruginosa P262-101856; assay type: cell-based, Pseudomonas aeruginosa; conditions: colistin-susceptible MDR isolate
Procedure: as §1

[5] = test system: P. aeruginosa P264-104354; assay type: cell-based, Pseudomonas aeruginosa; conditions: colistin-susceptible MDR isolate
Procedure: as §1

[6] = test system: A. baumannii 110193; assay type: cell-based, Acinetobacter baumannii; conditions: colistin-susceptible MDR isolate
Procedure: as §1

[7] = test system: A. baumannii 92247; assay type: cell-based, Acinetobacter baumannii; conditions: colistin-resistant isolate
Procedure: as §1

[8] = test system: A. baumannii AB027; assay type: cell-based, Acinetobacter baumannii; conditions: colistin-susceptible MDR isolate
Procedure: as §1

[9] = test system: A. baumannii AB031; assay type: cell-based, Acinetobacter baumannii; conditions: colistin-susceptible MDR isolate
Procedure: as §1

[10] = test system: A. baumannii ATCC 17978; assay type: cell-based, Acinetobacter baumannii; conditions: wild-type
Procedure: as §1

[11] = test system: A. baumannii LAC-4; assay type: cell-based, Acinetobacter baumannii; conditions: colistin-susceptible MDR isolate
Procedure: as §1

[12] = test system: E. coli 107115; assay type: cell-based, Escherichia coli; conditions: colistin-susceptible MDR isolate
Procedure: as §1

[13] = test system: E. coli 94393; assay type: cell-based, Escherichia coli; conditions: colistin-resistant isolate
Procedure: as §1

[14] = test system: E. coli 94474; assay type: cell-based, Escherichia coli; conditions: colistin-resistant isolate
Procedure: as §1

[15] = test system: E. cloacae 118564; assay type: cell-based, Enterobacter cloacae; conditions: colistin-resistant isolate
Procedure: as §1

[16] = test system: E. cloacae 121187; assay type: cell-based, Enterobacter cloacae; conditions: colistin-resistant isolate
Procedure: as §1

[17] = test system: K. pneumoniae 113250; assay type: cell-based, Klebsiella pneumoniae; conditions: colistin-resistant isolate
Procedure: as §1

[18] = test system: K. pneumoniae 113254; assay type: cell-based, Klebsiella pneumoniae; conditions: colistin-resistant isolate
Procedure: as §1

[19] = test system: P. aeruginosa PA 107092; experiment: MIC, broth microdilution; assay type: cell-based, Pseudomonas aeruginosa; conditions: β-lactamase harboring isolate
Procedure: as §1

[20] = test system: P. aeruginosa PA 108590; experiment: MIC, broth microdilution; assay type: cell-based, Pseudomonas aeruginosa; conditions: β-lactamase harboring isolate
Procedure: as §1

[21] = test system: P. aeruginosa PA 109084; experiment: MIC, broth microdilution; assay type: cell-based, Pseudomonas aeruginosa; conditions: β-lactamase harboring isolate
Procedure: as §1

[22] = test system: P. aeruginosa PA 86052; experiment: MIC, broth microdilution; assay type: cell-based, Pseudomonas aeruginosa; conditions: β-lactamase harboring isolate
Procedure: as §1

[23] = test system: P. aeruginosa PA 88949; experiment: MIC, broth microdilution; assay type: cell-based, Pseudomonas aeruginosa; conditions: β-lactamase harboring isolate
Procedure: as §1

[24] = test system: P. aeruginosa PAO1; experiment: microbe, parasite or virus in culture; assay type: cell-based, Pseudomonas aeruginosa
Procedure, shortened: (§2)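 Antibiotic and guanidinylated polymyxin adjuvant were two-fold serially diluted across perpendicular axes, combined with bacterial suspension and incubated 18 h at 37 °C. Turbidity was read as OD590. FIC index is the sum of each agent's MIC in combination divided by its MIC alone: ≤0.5 synergy, 0.5–4 additivity, >4 antagonism.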

[25] = test system: A. baumannii ATCC 17978; experiment: microbe, parasite or virus in culture; assay type: cell-based, Acinetobacter baumannii
Procedure, shortened: as §2

[26] = test system: E. coli ATCC 25922; experiment: microbe, parasite or virus in culture; assay type: cell-based, Escherichia coli
Procedure, shortened: as §2

[27] = agent alone, one value per checkerboard plate

Compound: CC[C@H](C)CCCCC(=O)N[C@@H](CCN)C(=O)N[C@H](C(=O)N[C@@H](CCN)C(=O)N[C@H]1CCNC(=O)[C@H]([C@@H](C)O)NC(=O)[C@H](CCN)NC(=O)[C@H](CCN)NC(=O)[C@H](CC(C)C)NC(=O)[C@@H](CC(C)C)NC(=O)[C@H](CCN)NC1=O)[C@@H](C)O [Colistin, colistin] (X1-[Dab]T[Dab][Dab][Dab][dL]L[Dab][Dab]T; lactam 4-C (inferred); N-terminus assumed)
- MIC [1]: 1024 µg/mL (≈ 876 µM)
- MIC [2]: 4 µg/mL (≈ 3.42 µM)
- MIC [3]: 0.5 µg/mL (≈ 0.428 µM)
- MIC [4]: 2 µg/mL (≈ 1.71 µM)
- MIC [5]: 1 µg/mL (≈ 0.855 µM)
- MIC [6]: 0.5 µg/mL (≈ 0.428 µM)
- MIC [7]: 4 µg/mL (≈ 3.42 µM)
- MIC [8]: 0.25 µg/mL (≈ 0.214 µM)
- MIC [9]: 0.25 µg/mL (≈ 0.214 µM)
- MIC [10]: 0.5 µg/mL (≈ 0.428 µM)
- MIC [11]: 0.125 µg/mL (≈ 0.107 µM)
- MIC [12]: 0.125 µg/mL (≈ 0.107 µM)
- MIC [13]: 4 µg/mL (≈ 3.42 µM)
- MIC [14]: 16 µg/mL (≈ 13.7 µM)
- MIC [15]: >128 µg/mL
- MIC [16]: >128 µg/mL
- MIC [17]: 256 µg/mL (≈ 219 µM)
- MIC [18]: 256 µg/mL (≈ 219 µM)
- MIC [19]: 0.5 µg/mL (≈ 0.428 µM)
- MIC [20]: 1 µg/mL (≈ 0.855 µM)
- MIC [21]: 0.5 µg/mL (≈ 0.428 µM)
- MIC [22]: 1 µg/mL (≈ 0.855 µM)
- MIC [23]: 1 µg/mL (≈ 0.855 µM)
- Absolute MIC of antibiotic at 4 μg/mL GCol [24]: 0.5 µg/mL
- Absolute MIC of antibiotic at 4 μg/mL GPMB [24]: 1 µg/mL
- MIC alone [24, 27]: 0.5 µg/mL and 1 µg/mL
- Fold-potentiation of antibiotic ([24]; at 4 μg/mL GCol): 1
- Fold-potentiation of antibiotic ([24]; at 4 μg/mL GPMB): 1
- Absolute MIC of antibiotic at 2 μg/mL GCol [25]: 0.25 µg/mL
- FIC index antibiotic + GPMB [25]: 1.016
- MIC alone [25, 27]: 0.25 µg/mL
- Fold-potentiation of antibiotic ([25]; at 2 μg/mL GCol): 1
- Fold-potentiation of antibiotic ([25]; at 2 μg/mL GPMB): 1
- Absolute MIC of antibiotic at 2 μg/mL GCol [26]: 0.125 µg/mL
- Absolute MIC of antibiotic at 2 μg/mL GPMB [26]: 0.0313 µg/mL
- FIC index antibiotic + GCol [26]: 1.016
- FIC index antibiotic + GPMB [26]: 0.25
- MIC alone [26, 27]: 0.125 µg/mL and 0.25 µg/mL
- Fold-potentiation of antibiotic ([26]; at 2 μg/mL GCol): 1
- Fold-potentiation of antibiotic ([26]; at 2 μg/mL GPMB): 8
